Measurements from ChEMBL document CHEMBL1909046, “DrugMatrix in vitro pharmacology data”.

Key:
[1] = DRUGMATRIX: Imidazoline I2, Central radioligand binding (ligand: [3H] Idazoxan); format: cell membranes, Rattus norvegicus, Wistar, Cerebral cortex, Membrane; details: Not Active = under 50% inhibition at 10 µM
[2] = DRUGMATRIX: Interleukin IL-1 radioligand binding (ligand: [125I] interleukin 1beta); format: cell membranes, Membrane; details: nih3t3; Not Active = under 50% inhibition at 10 µM
[3] = target: T1, 3-hydroxy-3-methylglutaryl-coenzyme A reductase (Homo sapiens, UniProt P04035); design: species or system Escherichia coli;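 further: enzyme inhibition assay of HMG-CoA reductase using radiolabeled [14C]HMG-CoA as substrate; in other assays of this panel Not Active means under 50% inhibition at 10 µM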
T1 sequence (P04035 whole entry): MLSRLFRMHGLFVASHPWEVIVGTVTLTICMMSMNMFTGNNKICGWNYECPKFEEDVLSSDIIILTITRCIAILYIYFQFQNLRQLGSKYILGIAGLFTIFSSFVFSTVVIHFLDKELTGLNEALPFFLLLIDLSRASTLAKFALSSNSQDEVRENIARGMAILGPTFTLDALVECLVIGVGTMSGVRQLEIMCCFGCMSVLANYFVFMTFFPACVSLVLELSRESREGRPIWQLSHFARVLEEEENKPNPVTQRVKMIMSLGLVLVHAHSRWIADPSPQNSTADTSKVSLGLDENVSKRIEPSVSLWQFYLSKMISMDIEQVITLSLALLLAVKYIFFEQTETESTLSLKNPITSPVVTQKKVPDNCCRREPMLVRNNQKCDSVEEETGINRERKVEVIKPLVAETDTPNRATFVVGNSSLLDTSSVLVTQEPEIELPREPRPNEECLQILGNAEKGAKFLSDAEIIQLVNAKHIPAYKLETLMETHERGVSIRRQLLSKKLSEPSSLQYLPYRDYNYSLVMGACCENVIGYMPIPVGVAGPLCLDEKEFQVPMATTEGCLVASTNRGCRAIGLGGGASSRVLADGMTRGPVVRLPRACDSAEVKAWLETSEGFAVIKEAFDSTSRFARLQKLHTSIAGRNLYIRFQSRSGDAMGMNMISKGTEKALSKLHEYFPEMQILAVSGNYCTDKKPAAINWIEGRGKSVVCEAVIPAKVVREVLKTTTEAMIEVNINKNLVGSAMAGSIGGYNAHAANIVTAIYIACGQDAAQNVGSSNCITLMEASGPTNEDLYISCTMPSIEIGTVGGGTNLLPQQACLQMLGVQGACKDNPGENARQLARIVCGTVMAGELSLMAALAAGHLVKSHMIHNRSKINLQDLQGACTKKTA

[4] = DRUGMATRIX: Glutamate, AMPA radioligand binding (ligand: [3H] AMPA); format: cell membranes, Rattus norvegicus, Wistar, Cerebral cortex, Membrane; details: Not Active = under 50% inhibition at 10 µM
Nitric oxide synthase 1 = Nitric oxide synthase 1 (Rattus norvegicus, UniProt P29476); format: tissue-based, Cerebellum; further: in other assays of this panel Not Active means under 50% inhibition at 10 µM
[5] = target: T2, Amine oxidase [flavin-containing] A (Homo sapiens, UniProt P21397); assay: DRUGMATRIX: Monoamine Oxidase MAO-A enzyme inhibition (substrate: Kynuramine); design: species or system BTI-TN-5B1-4; details: Not Active = under 50% inhibition at 10 µM
T2 sequence (P21397 whole entry): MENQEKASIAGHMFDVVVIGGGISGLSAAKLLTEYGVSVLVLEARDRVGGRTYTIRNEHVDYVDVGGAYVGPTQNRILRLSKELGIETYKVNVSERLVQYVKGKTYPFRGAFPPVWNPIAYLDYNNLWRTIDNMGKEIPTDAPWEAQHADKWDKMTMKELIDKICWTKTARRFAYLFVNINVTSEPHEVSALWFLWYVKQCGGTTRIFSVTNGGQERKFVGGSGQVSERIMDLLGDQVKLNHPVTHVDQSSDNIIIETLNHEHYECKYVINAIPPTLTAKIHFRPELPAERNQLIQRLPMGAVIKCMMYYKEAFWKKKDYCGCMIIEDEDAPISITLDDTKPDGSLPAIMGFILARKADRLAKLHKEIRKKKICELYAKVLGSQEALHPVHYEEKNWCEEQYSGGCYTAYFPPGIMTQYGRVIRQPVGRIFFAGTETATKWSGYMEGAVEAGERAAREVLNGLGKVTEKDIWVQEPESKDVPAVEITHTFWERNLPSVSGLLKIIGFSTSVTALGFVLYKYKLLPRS

Cytochrome P450 2C19 = Cytochrome P450 2C19 (Homo sapiens, UniProt P33261); details: bti-tn-5b1-4; further: in other assays of this panel Not Active means under 50% inhibition at 10 µM
Chain of Cytochrome P450 2C19 (P33261 whole entry): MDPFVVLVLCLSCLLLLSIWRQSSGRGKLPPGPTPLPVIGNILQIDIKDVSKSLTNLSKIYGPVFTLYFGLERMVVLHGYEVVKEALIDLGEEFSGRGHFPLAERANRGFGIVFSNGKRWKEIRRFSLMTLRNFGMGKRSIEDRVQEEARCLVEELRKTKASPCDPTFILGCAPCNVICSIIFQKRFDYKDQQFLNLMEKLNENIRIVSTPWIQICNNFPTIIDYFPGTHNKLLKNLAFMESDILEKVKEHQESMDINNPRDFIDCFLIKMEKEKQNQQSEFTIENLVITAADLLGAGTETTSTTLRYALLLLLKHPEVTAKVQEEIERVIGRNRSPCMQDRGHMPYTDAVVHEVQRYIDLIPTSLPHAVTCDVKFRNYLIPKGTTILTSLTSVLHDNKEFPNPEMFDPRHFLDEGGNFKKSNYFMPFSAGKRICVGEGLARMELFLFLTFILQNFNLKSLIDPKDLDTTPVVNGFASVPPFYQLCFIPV

Chain of Nitric oxide synthase 1 (P29476 whole entry): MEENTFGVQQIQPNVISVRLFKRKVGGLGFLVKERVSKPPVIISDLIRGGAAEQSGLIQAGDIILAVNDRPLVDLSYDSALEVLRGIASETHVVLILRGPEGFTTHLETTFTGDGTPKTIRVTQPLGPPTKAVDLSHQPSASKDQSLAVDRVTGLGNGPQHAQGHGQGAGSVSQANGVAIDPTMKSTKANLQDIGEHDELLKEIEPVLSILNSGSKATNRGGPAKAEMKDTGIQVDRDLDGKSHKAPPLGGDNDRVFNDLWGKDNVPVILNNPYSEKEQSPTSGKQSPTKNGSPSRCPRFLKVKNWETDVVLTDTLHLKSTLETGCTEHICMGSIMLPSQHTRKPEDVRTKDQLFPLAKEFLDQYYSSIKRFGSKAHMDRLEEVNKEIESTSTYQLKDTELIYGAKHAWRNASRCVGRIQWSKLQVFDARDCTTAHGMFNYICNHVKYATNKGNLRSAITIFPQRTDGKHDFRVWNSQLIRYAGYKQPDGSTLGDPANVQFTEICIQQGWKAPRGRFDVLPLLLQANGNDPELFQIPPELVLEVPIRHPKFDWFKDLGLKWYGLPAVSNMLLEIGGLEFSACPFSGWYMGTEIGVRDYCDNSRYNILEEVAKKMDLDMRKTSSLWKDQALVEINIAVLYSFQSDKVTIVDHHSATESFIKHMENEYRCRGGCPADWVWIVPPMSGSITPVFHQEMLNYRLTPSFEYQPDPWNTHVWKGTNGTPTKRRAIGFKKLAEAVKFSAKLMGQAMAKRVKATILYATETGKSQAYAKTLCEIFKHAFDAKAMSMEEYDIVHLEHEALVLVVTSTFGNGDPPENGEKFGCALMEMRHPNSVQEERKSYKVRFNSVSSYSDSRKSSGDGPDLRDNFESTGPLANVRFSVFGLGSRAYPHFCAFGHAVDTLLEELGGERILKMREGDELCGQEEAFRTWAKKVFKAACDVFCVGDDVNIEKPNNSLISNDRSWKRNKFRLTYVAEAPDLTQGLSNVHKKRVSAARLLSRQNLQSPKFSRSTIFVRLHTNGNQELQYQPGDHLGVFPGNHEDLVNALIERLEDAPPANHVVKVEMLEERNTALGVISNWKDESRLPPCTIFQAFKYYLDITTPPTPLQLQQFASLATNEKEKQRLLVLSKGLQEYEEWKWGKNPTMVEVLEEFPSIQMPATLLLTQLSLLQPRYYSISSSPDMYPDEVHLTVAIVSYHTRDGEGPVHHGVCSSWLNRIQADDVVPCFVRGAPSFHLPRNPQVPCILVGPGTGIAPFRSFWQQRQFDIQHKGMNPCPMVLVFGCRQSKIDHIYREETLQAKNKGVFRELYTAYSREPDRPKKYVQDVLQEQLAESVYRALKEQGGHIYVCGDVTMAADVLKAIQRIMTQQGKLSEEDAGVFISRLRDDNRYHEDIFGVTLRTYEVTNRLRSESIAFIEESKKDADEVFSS

| SMILES | IC50 [1] | Ki [1] | IC50 [2] | Ki [2] | IC50 [3] | IC50 [4] | Ki [4] | IC50 (Nitric oxide synthase 1) | IC50 ([5]; bti-tn-5b1-4) | IC50 (Cytochrome P450 2C19) | Ki (Cytochrome P450 2C19) | IC50 ([1]; read-out: IC50) [nM] | Ki ([1]; read-out: Ki) [nM] | IC50 ([5]; read-out: IC50) [nM] |
| --- | --- | --- | --- | --- | --- | --- | --- | --- | --- | --- | --- | --- | --- | --- |
| NC[C@H]1O[C@H](O[C@H]2[C@H](O)[C@@H](O[C@H]3O[C@H](CO)[C@@H](O)[C@H](N)[C@H]3O)[C@H](N)C[C@@H]2N)[C@H](O)[C@@H](O)[C@@H]1O [KANAMYCIN] | Not Active | Not Active | Not Active | Not Active | Not Active | Not Active | Not Active | Not Active | Not Active | Not Active | Not Active | – | – | – |
| N=C(N)N/N=C/c1c(Cl)cccc1Cl [GUANABENZ] | – | – | Not Active | Not Active | Not Active | Not Active | Not Active | Not Active | – | Not Active | Not Active | 18 | 12 | 1790 |
| C[C@]12CCC(=O)C=C1CC[C@@H]1[C@@H]2[C@@H](O)C[C@@]2(C)[C@H]1CC[C@]2(O)C(=O)CO [HYDROCORTISONE] | Not Active | Not Active | Not Active | Not Active | Not Active | Not Active | Not Active | Not Active | Not Active | Not Active | Not Active | – | – | – |
| Nc1nc(N)nc(NC2CC2)n1 [CYROMAZINE] | Not Active | Not Active | Not Active | Not Active | Not Active | Not Active | Not Active | Not Active | Not Active | Not Active | Not Active | – | – | – |
| OCCO [ETHYLENE GLYCOL] | Not Active | Not Active | Not Active | Not Active | Not Active | Not Active | Not Active | Not Active | Not Active | Not Active | Not Active | – | – | – |
| CCN[C@@H](C)Cc1cccc(C(F)(F)F)c1 [DEXFENFLURAMINE] | Not Active | Not Active | Not Active | Not Active | Not Active | Not Active | Not Active | Not Active | Not Active | Not Active | Not Active | – | – | – |
| C[C@]12C/C(=C/O)C(=O)C[C@@H]1CC[C@@H]1[C@@H]2CC[C@@]2(C)[C@H]1CC[C@]2(C)O [OXYMETHOLONE] | Not Active | Not Active | Not Active | Not Active | Not Active | Not Active | Not Active | Not Active | Not Active | Not Active | Not Active | – | – | – |
| C=C(CC)C(=O)c1ccc(OCC(=O)O)c(Cl)c1Cl [ETHACRYNIC ACID] | Not Active | Not Active | Not Active | Not Active | Not Active | Not Active | Not Active | Not Active | Not Active | Not Active | Not Active | – | – | – |
| CCOC(=O)[C@H](CCc1ccccc1)N[C@@H](C)C(=O)N1Cc2ccccc2C[C@H]1C(=O)O | Not Active | Not Active | Not Active | Not Active | Not Active | Not Active | Not Active | Not Active | Not Active | Not Active | Not Active | – | – | – |
| CCc1oc2ccccc2c1C(=O)c1cc(Br)c(O)c(Br)c1 [BENZBROMARONE] | Not Active | Not Active | Not Active | Not Active | Not Active | Not Active | Not Active | Not Active | Not Active | Not Active | Not Active | – | – | – |
| CC[C@H]1OC(=O)[C@H](C)[C@@H](O[C@H]2C[C@@](C)(OC)[C@@H](O)[C@H](C)O2)[C@H](C)[C@@H](O[C@@H]2O[C@H](C)C[C@H](N(C)C)[C@H]2O)[C@](C)(OC)C[C@@H](C)C(=O)[C@H](C)[C@@H](O)[C@]1(C)O [CLARITHROMYCIN] | Not Active | Not Active | Not Active | Not Active | Not Active | Not Active | Not Active | Not Active | Not Active | Not Active | Not Active | – | – | – |
| CC(=O)O[C@]1(C(C)=O)CC[C@H]2[C@@H]3C=C(C)C4=CC(=O)CC[C@]4(C)[C@H]3CC[C@@]21C [MEGESTROL ACETATE] | Not Active | Not Active | Not Active | Not Active | Not Active | Not Active | Not Active | Not Active | Not Active | Not Active | Not Active | – | – | – |
| CC(C)C[C@H]1C(=O)N2CCC[C@H]2[C@]2(O)O[C@](NC(=O)[C@@H]3C=C4c5cccc6[nH]c(Br)c(c56)C[C@H]4N(C)C3)(C(C)C)C(=O)N12 [BROMOCRIPTINE] | – | – | Not Active | Not Active | Not Active | Not Active | Not Active | Not Active | Not Active | Not Active | Not Active | 53 | 35 | – |
| CC(=O)O[C@]1(C(C)=O)CC[C@H]2[C@@H]3C=C(Cl)C4=CC(=O)[C@@H]5C[C@@H]5[C@]4(C)[C@H]3CC[C@@]21C [CYPROTERONE ACETATE] | Not Active | Not Active | Not Active | Not Active | Not Active | Not Active | Not Active | Not Active | Not Active | Not Active | Not Active | – | – | – |
| CC(C)(Oc1ccc(C2CC2(Cl)Cl)cc1)C(=O)O (centres undefined) [CIPROFIBRATE] | Not Active | Not Active | Not Active | Not Active | Not Active | Not Active | Not Active | Not Active | Not Active | Not Active | Not Active | – | – | – |
| CC(C)(C)c1ccc(S(=O)(=O)/C=C/C#N)cc1 [BAY-11-7085] | Not Active | Not Active | Not Active | Not Active | Not Active | Not Active | Not Active | Not Active | Not Active | Not Active | Not Active | – | – | – |
| Cc1cccc(Nc2ccccc2C(=O)O)c1C [MEFENAMIC ACID] | Not Active | Not Active | Not Active | Not Active | Not Active | Not Active | Not Active | Not Active | Not Active | Not Active | Not Active | – | – | – |
| NC[C@@H]1O[C@H](O[C@H]2[C@@H](O)[C@H](O[C@@H]3[C@@H](O)[C@H](N)C[C@H](N)[C@H]3O[C@H]3O[C@H](CN)[C@@H](O)[C@H](O)[C@H]3N)O[C@@H]2CO)[C@H](N)[C@@H](O)[C@@H]1O [FRAMYCETIN] | Not Active | Not Active | Not Active | Not Active | Not Active | Not Active | Not Active | Not Active | Not Active | Not Active | Not Active | – | – | – |
| O=C(O)c1cccnc1 [NIACIN] | Not Active | Not Active | Not Active | Not Active | Not Active | Not Active | Not Active | Not Active | Not Active | Not Active | Not Active | – | – | – |
